Laboratory results as given in patent publication US20090148883A1, “BIOMARKER FOR ASSESSING RESPONSE TO FMS TREATMENT” (priority 2007, published 2009).
pIC50: −log10 of the molar value. “And” between values parts separate entries of the source, which are not always exact repeats. Identical values can stand only once.

Tests used:
[1] = Tolerability in rats, Example 2; format: in vivo; details: 5 or 15 mg/kg COMPOUND 2 or 40 mg/kg COMPOUND 1, po bid, 5 consecutive days
Protocol: Groups of female Sprague Dawley rats (n=5) were orally administered 5 or 15 mg/kg of COMPOUND 2 or 40 mg/kg COMPOUND 1 twice per day for 5 consecutive days to characterize compound tolerability. Additional groups of rats, treated with vehicle or 40 mg/kg COMPOUND 1, were terminated one hour after the a.m. dose on Days 1 and 3 for interim analysis of various parameters. Post-mortem analysis of all treated animals included standard necropsy with liver histology evaluation as well as standard hematology and serology. None of the animals were found dead or were euthanized (moribund) prior to scheduled termination. None of the treatments affected body weight or the organ:body weight ratio of selected organs (i.e., liver, thymus, spleen & uterus). […] Both compounds, at the highest dose tested, decreased the number of macrophages in the uterus (up to ˜60% for COMPOUND 2) on Day 5 however, this parameter was highly variable. […]
On Days 1 & 3, one hour after a.m. dose, five rats from Groups 1 and 4 were euthanized using CO2 asphyxiation and exsanguinated via cardiac puncture. […] The macrophage content of the uterus was determined immunohistochemically using a macrophage-specific (ED-1) antibody. […]

CSF-1 [2] = experiment: Plasma CSF-1 biomarker in rats, Example 2 (po bid 5 days); format: in vivo, rat; details: 40 mg/kg po bid, control ~75 pg/ml
Protocol: (§1) Groups of female Sprague Dawley rats (n=5) were orally administered 5 or 15 mg/kg of COMPOUND 2 or 40 mg/kg COMPOUND 1 twice per day for 5 consecutive days to characterize compound tolerability. Additional groups of rats, treated with vehicle or 40 mg/kg COMPOUND 1, were terminated one hour after the a.m. dose on Days 1 and 3 for interim analysis of various parameters. Post-mortem analysis of all treated animals included standard necropsy with liver histology evaluation as well as standard hematology and serology. None of the animals were found dead or were euthanized (moribund) prior to scheduled termination. None of the treatments affected body weight or the organ:body weight ratio of selected organs (i.e., liver, thymus, spleen & uterus). […] Both compounds, at the highest dose tested, decreased the number of macrophages in the uterus (up to ˜60% for COMPOUND 2) on Day 5 however, this parameter was highly variable.
On Day 0, the rats were ear tagged, randomized into the treatment groups (Groups 1 & 4: n=15, Groups 2 & 3: n=5), weighed and treated (po, bid) with either vehicle (20% HPbCD) or the test articles as delineated in Table 2 (Allocation of Treatment Groups).
(§2) On Days 1 & 3, one hour after a.m. dose, five rats from Groups 1 and 4 were euthanized using CO2 asphyxiation and exsanguinated via cardiac puncture. Blood samples (˜500 μL) were transferred to separate ethylenediaminetetraacetic acid (EDTA) microtainers and a complete blood count (CBC) was conducted using the Advia 120 Hematology System (Bayer Diagnostics, Tarrytown, N.Y.). Additional blood samples were transferred to separate microtainers (with or without anticoagulant) and processed for biomarker (i.e., MCSF-1) and serologic (i.e., AST/ALT) analysis. The liver and thymus were weighed and discarded. The spleens were weighed and zap-frozen and the uteri (without ovaries attached) were weighed and fixed in 10% buffered formalin. The macrophage content of the uterus was determined immunohistochemically using a macrophage-specific (ED-1) antibody.
On Day 5, rats were euthanized using carbon dioxide and exsanguinated via cardiac puncture. Blood samples (˜500 μL) were collected and processed as described above for CBC, biomarker analysis and serology. The liver, spleen, thymus and uterus (without ovaries attached) were isolated, weighed and fixed in buffered formalin. The right knee with femur attached was isolated, trimmed and fixed in formalin. The left femur was isolated for determination of bone marrow cell counts. Liver histopathology was also conducted.
Differences between treated and control groups were analyzed statistically by ANOVA with a Dunnett's Multiple Comparison post-test. (p value; *:<0.05, **:<0.01).

[3] = tested on: ED-1 positive macrophages in the uterus; experiment: Macrophage content of the uterus (ED-1 immunohistochemistry) in rats, Example 2; format: in vivo, rat; details: highest dose tested (COMPOUND 2 15 mg/kg, COMPOUND 1 40 mg/kg po bid), Day 5; highly variable
Protocol: as §1, §2
On Day 5, rats were euthanized using carbon dioxide and exsanguinated via cardiac puncture. […]
Differences between treated and control groups were analyzed statistically by ANOVA with a Dunnett's Multiple Comparison post-test. […]

CSF-1 [4] = experiment: Plasma CSF-1 after single ascending oral doses in healthy male subjects (Human CSF-1 ELISA); format: in vivo; details: individual subjects (placebo subjects not identified); for Plasma CSF-1 Fold Change from Baseline: 1200 mg single oral dose cohort
Protocol: The safety and tolerability of single ascending, oral doses of COMPOUND 1 in healthy male subjects was assessed. Blood samples were collected on Day 1 predose and at 2, 4, 8, 12, 24 and 48 hours postdose and assessed for biomarker. Analysis of the biomarker was performed for all subjects receiving at least one dose of COMPOUND 1 or placebo as set forth in Table 5.
4 mL venous blood samples were collected on Day 1, within 60 minutes (predose), 2, 4, 8, 12, 24, and 48 hours postdose and 3 mL on Day 1 predose, 2 and 8 hours postdose for assessment of the effect of COMPOUND 1 on plasma CSF-1.
Plasma CSF-1 levels were measured using R&D Systems Human CSF-1 ELISA. Samples were diluted 1:5 for assay. Assay range for standards is 31-2000 pg/mL. Maximum measurable plasma concentration is ˜10000 pg/ml. Current maximum measured concentration ˜4000 pg/ml.

[5] = tested on: bone marrow derived macrophages (BMDM); experiment: Clearance of CSF-1 by bone marrow derived macrophages in vitro (CSF-1 ELISA of conditioned media); format: cell-based, mouse; details: for Reduction of rate of CSF-1 consumption: slopes through 4.9 hours
Protocol: COMPOUND 1 was provided as a 10 mM stock in dimethyl sulfoxide (DMSO).Recombinant mouse CSF-1 (416 mL 050) and mouse CSF-1 ELISA (MNC00) were both purchased from R&D Systems Inc., (Minneapolis, Minn.). Mouse bone marrow-derived macrophage (BMDM) were prepared and were plated into 12 well plates in the presence of culture media (αMEM containing 10% FCS and glutamine PenStrep) and 25 ng/mL CSF-1 for three days until approximately 60% confluency was achieved. The cultures were then washed twice with media without CSF-1, and cultured for 2 hrs in the absence of CSF-1 to allow the macrophages to consume CSF-1 that may have been residual to the wells. The cultures were next adjusted to contain CSF-1 and COMPOUND 1 as indicated in Table 1 (Experimental Design) and incubation was continued at 37° C. and 5% CO2. […] At timed-intervals (0, 1.1, 2.3, 4.9, 10.3, 19.9, 29, and 44 hours) 50 μl of conditioned media were removed from each well and saved under refrigeration. After harvest of the last time point, all samples were subjected to CSF-1 ELISA. CSF-1 concentrations (pg/mL) vs time were plotted for each well using linear linear and log linear formats. Consumption was log linear over the first 4.9-hours. Excel was used to calculate a best fit linear equation describing CSF-1 consumption for each well through 4.9 hours and slopes were used to determine the relative rates of consumption.

BMDM = experiment: CSF-1-induced BMDM proliferation; format: cell-based; details: Mus musculus, data not shown, read-out: IC50 for inhibition of CSF-1-induced BMDM proliferation

## CN(C)CC(=O)N1CCC(c2ccc(NC(=O)c3nc(C#N)c[nH]3)c(C3=CCCCC3)c2)CC1.Cl [COMPOUND 1]
[1]
  Effect on appearance, behavior, body weight or organ:body weight ratio (liver, spleen, thymus): did not have an observable effect
CSF-1 [2]; Day 1
  Mean plasma CSF-1 level: 112 pg/mL
CSF-1 [2]; Day 3
  Mean plasma CSF-1 level: 314 pg/mL
CSF-1 [2]; Day 5
  Mean plasma CSF-1 level: 526 pg/mL
[3]
  Effect on macrophage content of the uterus: decreased the macrophage content of the uterus
CSF-1 [4]; 150 mg single oral dose cohort, 2 hours postdose
  Plasma CSF-1 Fold Change from Time 0: 1.8 fold (2×) and 2.5 fold and 2.0 fold and 0.8 fold (2×) and 0.9 fold
CSF-1 [4]; 150 mg single oral dose cohort, 4 hours postdose
  Plasma CSF-1 Fold Change from Time 0: 2.2 fold and 1.8 fold and 1.9 fold (2×) and 0.8 fold (2×) and 0.9 fold
CSF-1 [4]; 150 mg single oral dose cohort, 8 hours postdose
  Plasma CSF-1 Fold Change from Time 0: 1.4 fold and 2.5 fold and 1.6 fold and 1.0 fold and 0.8 fold and 1.7 fold and 0.7 fold
CSF-1 [4]; 150 mg single oral dose cohort, 12 hours postdose
  Plasma CSF-1 Fold Change from Time 0: 1.5 fold and 1.6 fold and 2.4 fold and 0.9 fold and 0.8 fold and 1.7 fold and 0.7 fold
CSF-1 [4]; 150 mg single oral dose cohort, 24 hours postdose
  Plasma CSF-1 Fold Change from Time 0: 1.4 fold and 1.3 fold and 1.2 fold and 2.0 fold and 0.9 fold and 1.8 fold and 0.7 fold
CSF-1 [4]; 150 mg single oral dose cohort, 48 hours postdose
  Plasma CSF-1 Fold Change from Time 0: 1.2 fold and 1.1 fold and 1.0 fold and 0.8 fold and 1.8 fold and 1.4 fold and 0.6 fold
CSF-1 [4]; 300 mg single oral dose cohort, 2 hours postdose
  Plasma CSF-1 Fold Change from Time 0: 4.6 fold and 0.8 fold and 3.3 fold and 2.7 fold and 0.9 fold and 5.2 fold and 3.4 fold and 1.8 fold
CSF-1 [4]; 300 mg single oral dose cohort, 4 hours postdose
  Plasma CSF-1 Fold Change from Time 0: 4.4 fold (2×) and 1.4 fold and 3.0 fold and 0.7 fold and 6.8 fold and 4.5 fold and 2.6 fold
CSF-1 [4]; 300 mg single oral dose cohort, 8 hours postdose
  Plasma CSF-1 Fold Change from Time 0: 3.8 fold and 0.9 fold and 3.4 fold and 3.0 fold and 1.5 fold and 6.4 fold and 4.1 fold and 1.9 fold
CSF-1 [4]; 300 mg single oral dose cohort, 12 hours postdose
  Plasma CSF-1 Fold Change from Time 0: 2.6 fold and 0.8 fold and 2.2 fold and 3.8 fold and 0.9 fold and 4.5 fold and 3.0 fold and 1.4 fold
CSF-1 [4]; 300 mg single oral dose cohort, 24 hours postdose
  Plasma CSF-1 Fold Change from Time 0: 1.9 fold and 0.9 fold and 1.5 fold (3×) and 1.7 fold and 2.1 fold and 1.1 fold
CSF-1 [4]; 300 mg single oral dose cohort, 48 hours postdose
  Plasma CSF-1 Fold Change from Time 0: 2.3 fold and 1.0 fold and 1.4 fold (2×) and 0.9 fold and 2.2 fold and 1.2 fold and 0.8 fold
CSF-1 [4]; 600 mg single oral dose cohort, 2 hours postdose
  Plasma CSF-1 Fold Change from Time 0: 7.5 fold and 0.7 fold and 2.9 fold and 5.0 fold and 0.9 fold and 6.0 fold and 4.8 fold and 2.3 fold
CSF-1 [4]; 600 mg single oral dose cohort, 4 hours postdose
  Plasma CSF-1 Fold Change from Time 0: 8.7 fold and 1.2 fold
CSF-1 [4]; 2 hours postdose
  Plasma CSF-1 Fold Change from Baseline: 5.4 fold and 4.9 fold and 0.8 fold and 4.4 fold (2×) and 6.8 fold and 0.5 fold and 3.5 fold
CSF-1 [4]; 4 hours postdose
  Plasma CSF-1 Fold Change from Baseline: 8.9 fold and 8.4 fold and 1.0 fold and 7.6 fold and 9.5 fold and 5.9 fold and 0.4 fold and 5.3 fold
CSF-1 [4]; 8 hours postdose
  Plasma CSF-1 Fold Change from Baseline: 9.9 fold and 9.8 fold and 1.0 fold and 11.3 fold and 13.4 fold and 6.9 fold and 0.4 fold and 7.8 fold
CSF-1 [4]; 12 hours postdose
  Plasma CSF-1 Fold Change from Baseline: 9.2 fold and 5.2 fold and 2.1 fold and 10.5 fold and 8.8 fold and 5.8 fold and 0.4 fold and 6.0 fold
CSF-1 [4]; 24 hours postdose
  Plasma CSF-1 Fold Change from Baseline: 4.7 fold and 1.4 fold and 1.0 fold and 6.1 fold and 2.9 fold and 3.2 fold and 0.4 fold and 1.8 fold
CSF-1 [4]; 48 hours postdose
  Plasma CSF-1 Fold Change from Baseline: 2.7 fold (2×) and 1.0 fold and 0.9 fold and 3.3 fold and 2.4 fold and 0.6 fold and 1.6 fold
[5]; 0.001 μM, 1 ng/mL CSF-1
  Reduction of rate of CSF-1 consumption: 16%
[5]; 0.01 μM, 1 ng/mL CSF-1
  Reduction of rate of CSF-1 consumption: 56%
[5]; 0.1 μM, 1 ng/mL CSF-1
  Reduction of rate of CSF-1 consumption: 64%
[5]; 1 uM
  Portion of CSF-1 clearance not inhibited: ~36%
[5]; 1 μM, 1 ng/mL CSF-1
  Reduction of rate of CSF-1 consumption: 64%
[5]; Mus musculus, BMDM, 1 ng/mL CSF-1, read-out: Half-maximal inhibition of CSF-1 consumption
  pIC50: 8.00 to 9.00
[5]; based on consumption rates, plateau
  Portion of CSF-1 clearance that can be inhibited: ~64%
BMDM
  pIC50: 8.59
